Data: PubChem BioAssay AID1963971 (Molecular Pharmacology Branch, DTP, NCI, 2024)

Tested on: 953936-095-R-J2-PDC spheroids with HUVEC/MSC, viability
Assay: Anticancer human tumor 953936-095-R-J2-PDC patient-derived cervical squamous cell carcinoma cell line growth inhibition [PI3K]
Details: for IC50: curve of first compound; for viability, T/C: stronger effect = lower value; active = viability on the fitted dose curve at most 10% of control; inactive = the rest
From the text: Combinatorial screen of targeted agents with the PI3K inhibitors inavolisib, alpelisib, duvelisib, and copanlisib in multi-cell type tumor spheroids
A high-throughput screen of multi-cell type tumor spheroids was designed to identify active combinations of targeted small molecules and PI3K pathway inhibitors. Complex spheroids include a stromal component modeled by human endothelial cells (HUVEC) and fibroblasts modeled by human mesenchymal stem cells (MSCs). The concentration ranges selected for each drug and investigational agent were based upon clinically achievable concentrations if the clinical Cmax of the agent was known.
Compounds. The drugs and investigational agents: inavolisib (NSC800729), alpelisib (NSC765974), duvelisib (NSC772469), copanlisib (NSC816437), ipatasertib (NSC767898), afuresertib (NSC778305), talazoparib (NSC767125), sapanisertib (NSC764658), selumetinib (NSC741078), tovorafenib (DAY101, NSC766906), vemurafenib (NSC761431), ravoxertinib (NSC781343), sotorasib (NSC818433), MRTX1133 (NSC 836407), abemaciclib (NSC 768073), palbociclib (NSC758247), venetoclax (NSC 766270), SY5609 (NSC837396), enzalutamide (NSC755605), and darolutamide (NSC825331), were obtained from the National Cancer Institute (NCI) Developmental Therapeutics Program Chemical Repository. The FDA-approved anticancer drug set is available from the NCI Developmental Therapeutics Program. […] The stock solutions were prepared in dimethyl sulfoxide (DMSO, Sigma-Aldrich, St. Louis, MO, cat. D2650) at 800-fold the tested concentration and stored at -70 degrees C prior to their use. All drugs and investigational agents were tested over a range starting from a high concentration at or near the clinical Cmax and decreasing in half-log increments. If the clinical Cmax for an agent had not been determined, the highest concentration tested was 10 microM.
Cell Culture. All cells were maintained in an incubator at 37 degrees C and 5% CO2 with 95% humidity. The PDC lines were cultured according to standard operating procedures established by the NCI PDMR (https://pdmr.cancer.gov/sops/default.htm). All PDCs were thawed and cultured in Matrigel-coated flasks prepared with a working solution of 1X Ham's F-12 nutrient mix, without supplementation (Invitrogen, Waltham, MA, cat. 11765054), 100 U/mL penicillin-streptomycin (Invitrogen, cat. 15140122), and 2.5% Matrigel (Corning Inc., Corning, NY, cat. 354248) for the first three passages. The 354836-022-R-J1-PDC, 475296-252-R-J1-PDC, and 997726-040-R-J2-PDC lines were cultured in 6A media, which includes advanced DMEM/F-12 (Thermo Fisher Scientific, cat. 12634028), 10 mM HEPES (Thermo Fisher Scientific, cat. 15630080), 1X GlutaMAX supplement (Thermo Fisher Scientific, cat. 35050061), 0.1 mg/mL primocin (InvivoGen, San Diego, CA, cat. ant-pm-2), 10% defined fetal bovine serum, heat inactivated (HyClone Laboratories Inc., Logan, UT, cat. SH30070.03HI), 50% L-WRN conditioned media (ATCC, cat. CRL-3276), 1.25 mM N-Acetyl-L-cysteine (Sigma-Aldrich, cat. A9165), 10 mM nicotinamide (Sigma-Aldrich, cat. N0636), 1X B-27 supplement (Thermo Fisher Scientific, cat. 17504044), 1X N-2 supplement (Thermo Fisher Scientific, cat. 17502048), and 10 microM Y-27632 dihydrochloride (Tocris Bioscience, Bristol, United Kingdom, cat. 1254). The 624824-186-R-J2-PDC line was cultured in 6C/Colon 1B media, which includes all 6A media components plus 50 ng/mL human EGF recombinant protein (Thermo Fisher Scientific, cat. PHG0311). […]

[1] = second compound 0.00316 µM, first compound 0.0316 µM
[2] = second compound 0.00316 µM, first compound 0.1 µM
[3] = second compound 0.01 µM, first compound 0.0316 µM
[4] = second compound 0.01 µM, first compound 0.1 µM
[5] = second compound 0.0316 µM, first compound 0.0316 µM
[6] = second compound 0.0316 µM, first compound 0.1 µM
[7] = second compound 0.1 µM, first compound 0.0316 µM
[8] = second compound 0.1 µM, first compound 0.1 µM
[9] = second compound 0.316 µM, first compound 0.0316 µM
[10] = second compound 0.316 µM, first compound 0.1 µM
[11] = second compound 1 µM, first compound 0.0316 µM
[12] = second compound 1 µM, first compound 0.1 µM
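Also: spheroids exposed to compounds for seven days before read-out.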

CC(=O)c1c(C)c2cnc(Nc3ccc(N4CCNCC4)cn3)nc2n(C2CCCC2)c1=O + CC(Nc1ccc2c(c1)OCCn1cc(N3C(=O)OCC3C(F)F)nc1-2)C(N)=O
> 100 nM: IC50 (second compound 0.00316 µM) | IC50 (second compound 0.01 µM) | IC50 (second compound 0.0316 µM) | IC50 (second compound 0.1 µM)
inactive: viability, T/C (second compound 0.00316 µM, first compound 0.000316 µM) 89.4% | viability, T/C (second compound 0.00316 µM, first compound 0.001 µM) 93.1% | viability, T/C (second compound 0.00316 µM, first compound 0.00316 µM) 98% | viability, T/C (second compound 0.00316 µM, first compound 0.01 µM) 99.6% | viability, T/C [1] 93.5% | viability, T/C [2] 93.3% | viability, T/C (second compound 0.01 µM, first compound 0.000316 µM) 94.9% | viability, T/C (second compound 0.01 µM, first compound 0.001 µM) 87.5% | viability, T/C (second compound 0.01 µM, first compound 0.00316 µM) 88.9% | viability, T/C (second compound 0.01 µM, first compound 0.01 µM) 93.8% | viability, T/C [3] 85.7% | viability, T/C [4] 92% | viability, T/C (second compound 0.0316 µM, first compound 0.000316 µM) 76.3% | viability, T/C (second compound 0.0316 µM, first compound 0.001 µM) 74.9% | viability, T/C (second compound 0.0316 µM, first compound 0.00316 µM) 74.8% | viability, T/C (second compound 0.0316 µM, first compound 0.01 µM) 76.5% | viability, T/C [5] 79.1% | viability, T/C [6] 68.4% | viability, T/C (second compound 0.1 µM, first compound 0.000316 µM) 66.9% | viability, T/C (second compound 0.1 µM, first compound 0.001 µM) 59.6% | viability, T/C (second compound 0.1 µM, first compound 0.00316 µM) 58.6% | viability, T/C (second compound 0.1 µM, first compound 0.01 µM) 54.5% | viability, T/C [7] 55.6% | viability, T/C [8] 54.5% | viability, T/C (second compound 0.316 µM, first compound 0.000316 µM) 35.2% | viability, T/C (second compound 0.316 µM, first compound 0.001 µM) 34.6% | viability, T/C (second compound 0.316 µM, first compound 0.00316 µM) 35.6% | viability, T/C (second compound 0.316 µM, first compound 0.01 µM) 37.7% | viability, T/C [9] 33.6% | viability, T/C [10] 35.3% | viability, T/C (second compound 1 µM, first compound 0.000316 µM) 25% | viability, T/C (second compound 1 µM, first compound 0.001 µM) 22.6% | viability, T/C (second compound 1 µM, first compound 0.00316 µM) 21.7% | viability, T/C (second compound 1 µM, first compound 0.01 µM) 22% | viability, T/C [11] 25.5% | viability, T/C [12] 22.9%
< 0.316 nM: IC50 (second compound 0.316 µM) | IC50 (second compound 1 µM)

CNC(=O)c1ccc(N2C(=S)N(c3ccc(C#N)c(C(F)(F)F)c3)C(=O)C2(C)C)cc1F + CC(Nc1ccc2c(c1)OCCn1cc(N3C(=O)OCC3C(F)F)nc1-2)C(N)=O
4150 nM: IC50 (second compound 0.1 µM)
< 31.6 nM: IC50 (second compound 0.316 µM) | IC50 (second compound 1 µM)
inactive: viability, T/C [1] 89.1% | viability, T/C [2] 103% | viability, T/C (second compound 0.00316 µM, first compound 0.316 µM) 90.5% | viability, T/C (second compound 0.00316 µM, first compound 1 µM) 87.3% | viability, T/C (second compound 0.00316 µM, first compound 3.16 µM) 88.1% | viability, T/C (second compound 0.00316 µM, first compound 10 µM) 77.5% | viability, T/C [3] 93.4% | viability, T/C [4] 92.7% | viability, T/C (second compound 0.01 µM, first compound 0.316 µM) 90.3% | viability, T/C (second compound 0.01 µM, first compound 1 µM) 84.4% | viability, T/C (second compound 0.01 µM, first compound 3.16 µM) 90.5% | viability, T/C (second compound 0.01 µM, first compound 10 µM) 88.6% | viability, T/C [5] 75.9% | viability, T/C [6] 78.6% | viability, T/C (second compound 0.0316 µM, first compound 0.316 µM) 87% | viability, T/C (second compound 0.0316 µM, first compound 1 µM) 71% | viability, T/C (second compound 0.0316 µM, first compound 3.16 µM) 74.5% | viability, T/C (second compound 0.0316 µM, first compound 10 µM) 71.4% | viability, T/C [7] 60.7% | viability, T/C [8] 55.5% | viability, T/C (second compound 0.1 µM, first compound 0.316 µM) 57.2% | viability, T/C (second compound 0.1 µM, first compound 1 µM) 53.4% | viability, T/C (second compound 0.1 µM, first compound 3.16 µM) 50.5% | viability, T/C (second compound 0.1 µM, first compound 10 µM) 47.8% | viability, T/C [9] 32.5% | viability, T/C [10] 35.6% | viability, T/C (second compound 0.316 µM, first compound 0.316 µM) 35.1% | viability, T/C (second compound 0.316 µM, first compound 1 µM) 36.4% | viability, T/C (second compound 0.316 µM, first compound 3.16 µM) 33.3% | viability, T/C (second compound 0.316 µM, first compound 10 µM) 31.5% | viability, T/C [11] 22.4% | viability, T/C [12] 22.8% | viability, T/C (second compound 1 µM, first compound 0.316 µM) 21.5% | viability, T/C (second compound 1 µM, first compound 1 µM) 21.8% | viability, T/C (second compound 1 µM, first compound 3.16 µM) 24.1% | viability, T/C (second compound 1 µM, first compound 10 µM) 23%
> 10000 nM: IC50 (second compound 0.00316 µM) | IC50 (second compound 0.01 µM) | IC50 (second compound 0.0316 µM)
